Data reported in patent US20230151003A1, “COMPOUNDS AND METHODS OF USE” (Exelixis, Inc., priority 2020, published 2023).

Tests used:
Met = Met (Homo sapiens, UniProt P08581); test: Met autophosphorylation ELISA in PC-3 cells; assay type: cell-based; set-up: endogenous in cells; host or cells: PC-3 prostate cancer cells (ATCC #CRL-1435); conditions: Table 3 Cellular Activities, HGF-stimulated, phospho-Met ELISA, read-out: c-Met IC50
Procedure, shortened: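 IC50 derived by 4-parameter logistic regression of phospho-Met (panTyr) sandwich ELISA signal, scaled between HGF-stimulated DMSO and reference-inhibitor lysates. PC-3 cells, serum-starved 3 h, received an 8-point compound series (0.3% DMSO) for 1 h before 10 min stimulation with 100 ng/mL human HGF.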

AXL = biological target: T1, AXL (Homo sapiens, UniProt P30530); test: AXL autophosphorylation ELISA in A-172 cells; assay type: cell-based; conditions: Table 3 Cellular Activities, Gas6-stimulated, phospho-AXL ELISA
T1 construct: endogenous in cells; host or cells: A-172 glioblastoma cells (ATCC #CRL-1620)
T1 sequence (P30530 26-894): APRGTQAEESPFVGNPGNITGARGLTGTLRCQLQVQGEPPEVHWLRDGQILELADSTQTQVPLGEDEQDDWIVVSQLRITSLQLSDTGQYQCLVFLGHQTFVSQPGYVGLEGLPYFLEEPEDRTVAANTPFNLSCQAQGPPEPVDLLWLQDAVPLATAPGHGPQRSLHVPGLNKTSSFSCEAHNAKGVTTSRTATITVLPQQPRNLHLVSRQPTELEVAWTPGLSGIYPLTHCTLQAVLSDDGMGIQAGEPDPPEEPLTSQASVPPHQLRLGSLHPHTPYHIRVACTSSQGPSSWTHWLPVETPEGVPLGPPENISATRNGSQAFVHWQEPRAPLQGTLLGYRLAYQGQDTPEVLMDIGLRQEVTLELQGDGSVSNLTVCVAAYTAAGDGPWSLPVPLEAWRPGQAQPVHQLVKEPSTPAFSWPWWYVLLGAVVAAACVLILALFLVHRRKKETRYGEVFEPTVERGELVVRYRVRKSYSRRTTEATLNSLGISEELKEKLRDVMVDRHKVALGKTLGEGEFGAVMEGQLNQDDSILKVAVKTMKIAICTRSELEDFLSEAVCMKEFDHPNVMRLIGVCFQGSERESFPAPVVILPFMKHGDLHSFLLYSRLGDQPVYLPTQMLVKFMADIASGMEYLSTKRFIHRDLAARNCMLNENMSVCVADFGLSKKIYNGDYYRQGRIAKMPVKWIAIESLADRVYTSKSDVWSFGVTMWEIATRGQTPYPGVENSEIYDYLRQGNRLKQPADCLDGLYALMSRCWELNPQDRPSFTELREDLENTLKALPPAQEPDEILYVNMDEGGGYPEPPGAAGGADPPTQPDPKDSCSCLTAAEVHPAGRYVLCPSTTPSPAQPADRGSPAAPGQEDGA
Description: A-172 glioblastoma cells (ATCC #CRL-1620) were seeded at 2.5×10^5 cells/well onto 24-well plates (Greiner #662165), in DMEM (Thermo Fisher #11995-040) containing 10% FBS (Thermo Fisher #26140-079), 1% MEM NEAA (Thermo Fisher #11140-050), 1% GlutaMax (Thermo Fisher #35050-061), and 1% Penicillin Streptomycin (Thermo Fisher #15140-122). A-172 cells were incubated at 37° C., 5% CO2 for 24 h and then starved for 24 h in serum-free medium. Test compounds were serially diluted to produce an 8-point dose curve in fresh serum-free medium to a final concentration of 0.3% DMSO (vehicle) and added to the cells and incubated for 1 h. Cells were then stimulated with 1 μg/mL recombinant human Gas6 (R&D Systems #885-GSB-500) for 15 min, washed with cold PBS, and immediately lysed with 150 μL of cold 1× lysis buffer [20 mM Tris, 137 mM sodium chloride, 2 mM EDTA, 10% glycerol, 1% NP-40 alternative, 1 mM activated sodium orthovanadate, 1 mM PefaBloc SC (Sigma-Aldrich #11429868001), protease/phosphatase inhibitor tablet (Thermo Fisher #A32959)]. Lysates were collected and 100 μL/well added into the human phospho-AXL DuoSet IC ELISA (R&D Systems #DYC2228-2). Assay was performed according to manufacturer's instructions and sample phospho-AXL concentrations were extrapolated using human phospho-AXL control (R&D Systems #841645) as a standard. Positive control wells (100% activity) contained Gas6-stimulated, DMSO-treated cell lysates. Negative control wells (0% activity) contained Gas6-stimulated, reference inhibitor-treated cell lysates. IC50 values were calculated by nonlinear regression analysis using a 4-parameter logistic curve fit in ActivityBase XE (IDBS).

Met, sequence (P08581 25-1390): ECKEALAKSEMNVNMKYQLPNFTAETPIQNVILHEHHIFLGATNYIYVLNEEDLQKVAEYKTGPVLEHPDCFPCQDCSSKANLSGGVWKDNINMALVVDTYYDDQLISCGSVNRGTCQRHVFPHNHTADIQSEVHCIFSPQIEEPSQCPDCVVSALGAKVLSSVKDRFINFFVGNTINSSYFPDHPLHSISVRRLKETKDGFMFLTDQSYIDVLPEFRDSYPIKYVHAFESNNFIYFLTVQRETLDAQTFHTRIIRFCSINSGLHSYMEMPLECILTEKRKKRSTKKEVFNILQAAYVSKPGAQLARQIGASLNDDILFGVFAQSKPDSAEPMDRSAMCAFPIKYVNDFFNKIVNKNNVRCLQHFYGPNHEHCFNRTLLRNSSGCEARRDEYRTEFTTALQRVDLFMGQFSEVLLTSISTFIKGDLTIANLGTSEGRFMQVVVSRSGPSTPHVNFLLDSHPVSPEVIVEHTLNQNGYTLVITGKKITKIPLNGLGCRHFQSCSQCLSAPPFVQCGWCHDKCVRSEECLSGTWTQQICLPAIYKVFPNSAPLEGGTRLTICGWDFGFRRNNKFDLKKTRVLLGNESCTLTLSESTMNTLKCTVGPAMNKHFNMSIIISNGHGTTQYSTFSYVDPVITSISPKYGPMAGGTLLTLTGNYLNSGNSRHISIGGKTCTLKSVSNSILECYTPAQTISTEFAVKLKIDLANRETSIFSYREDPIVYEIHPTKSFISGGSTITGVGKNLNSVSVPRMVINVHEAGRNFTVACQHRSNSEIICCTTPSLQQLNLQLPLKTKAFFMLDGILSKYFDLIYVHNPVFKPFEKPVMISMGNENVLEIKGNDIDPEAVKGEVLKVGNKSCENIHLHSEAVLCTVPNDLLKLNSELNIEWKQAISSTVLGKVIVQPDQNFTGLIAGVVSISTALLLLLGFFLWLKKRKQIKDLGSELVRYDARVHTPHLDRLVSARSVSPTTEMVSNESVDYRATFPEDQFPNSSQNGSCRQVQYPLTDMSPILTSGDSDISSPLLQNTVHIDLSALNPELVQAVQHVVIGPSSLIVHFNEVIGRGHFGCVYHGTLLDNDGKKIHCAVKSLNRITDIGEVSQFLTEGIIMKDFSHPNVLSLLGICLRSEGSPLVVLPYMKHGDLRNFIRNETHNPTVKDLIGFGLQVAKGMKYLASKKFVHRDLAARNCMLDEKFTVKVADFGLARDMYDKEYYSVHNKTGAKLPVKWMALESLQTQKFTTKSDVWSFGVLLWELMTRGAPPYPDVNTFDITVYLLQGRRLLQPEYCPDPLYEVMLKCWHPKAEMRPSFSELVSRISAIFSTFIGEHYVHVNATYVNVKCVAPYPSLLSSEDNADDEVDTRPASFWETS

| Compound | IC50 (Met) [nM] | IC50 (AXL) [nM] |
| --- | --- | --- |
| COc1cc2nccc(Oc3ccc(NC(=O)c4ccc(C)n(-c5ccnc(C)c5)c4=O)cc3F)c2nc1OC [Compound 230, N-[4-[(6,7-Dimethoxy-1,5-naphthyridin-4-yl)oxy]-3-fluorophenyl]-6-methyl-1-(2-methylpyridin-4-yl)-2-oxopyridine-3-carboxamide] | ≤ 100 | ≤ 100 |
| COc1cnc2c(Oc3ccc(NC(=O)c4cc(C(C)=O)c(C)n(-c5ccco5)c4=O)cc3F)ccnc2c1 [Compound 238, 5-Acetyl-N-[3-fluoro-4-[(7-methoxy-1,5-naphthyridin-4-yl)oxy]phenyl]-1-(furan-2-yl)-6-methyl-2-oxopyridine-3-carboxamide] | 300 to 1000 | 100 to 300 |
| COc1cc2nccc(Oc3ccc(NC(=O)c4cc(C#N)c(C)n(-c5ccc(F)cn5)c4=O)cc3F)c2nc1OC [Compound 56, 5-Cyano-N-[4-[(6,7-dimethoxy-1,5-naphthyridin-4-yl)oxy]-3-fluorophenyl]-1-(5-fluoropyridin-2-yl)-6-methyl-2-oxopyridine-3-carboxamide] | ≤ 100 | ≤ 100 |
| COc1cc2nccc(Oc3ccc(NC(=O)c4c5n(c(C)c(-c6ccsc6)c4=O)CCOC5)cc3F)c2nc1OC [Compound 307, N-[4-[(6,7-Dimethoxy-1,5-naphthyridin-4-yl)oxy]-3-fluorophenyl]-6-methyl-8-oxo-7-thiophen-3-yl-3,4-dihydro-1H-pyrido[2,1-c][1,4]oxazine-9-carboxamide] | ≤ 100 | ≤ 100 |
| COc1cc2nccc(Oc3ccc(NC(=O)c4c5n(cc(-c6ccoc6)c4=O)CCOC5)cc3F)c2nc1OC [Compound 306, N-[4-[(6,7-Dimethoxy-1,5-naphthyridin-4-yl)oxy]-3-fluorophenyl]-7-(furan-3-yl)-8-oxo-3,4-dihydro-1H-pyrido[2,1-c][1,4]oxazine-9-carboxamide] | ≤ 100 | ≤ 100 |
| COc1cc2nccc(Oc3ccc(NC(=O)c4ccc(C)n(-c5ncc(F)cc5C)c4=O)cc3F)c2nc1OC [Compound 51, N-[4-[(6,7-Dimethoxy-1,5-naphthyridin-4-yl)oxy]-3-fluorophenyl]-1-(5-fluoro-3-methylpyridin-2-yl)-6-methyl-2-oxopyridine-3-carboxamide] | ≤ 100 | ≤ 100 |
| COc1ccc2nccc(Oc3ccc(NC(=O)c4ccc(C)n(-c5ccc(F)cn5)c4=O)cc3F)c2n1 [Compound 47, N-[3-Fluoro-4-[(6-methoxy-1,5-naphthyridin-4-yl)oxy]phenyl]-1-(5-fluoropyridin-2-yl)-6-methyl-2-oxopyridine-3-carboxamide] | ≤ 100 | ≤ 100 |
| COCCOc1cc2nccc(Oc3ccc(NC(=O)c4c(C)n(C)c(C)c(-c5ccco5)c4=O)cc3F)c2nc1OC [Compound 254, N-[3-Fluoro-4-[[6-methoxy-7-(2-methoxyethoxy)-1,5-naphthyridin-4-yl]oxy]phenyl]-5-(furan-2-yl)-1,2,6-trimethyl-4-oxopyridine-3-carboxamide] | ≤ 100 | ≤ 100 |
| COc1cc2nccc(Oc3ccc(NC(=O)c4ccc(C)n(-c5ccncc5F)c4=O)cc3F)c2nc1OC [Compound 220, N-[4-[(6,7-Dimethoxy-1,5-naphthyridin-4-yl)oxy]-3-fluorophenyl]-1-(3-fluoropyridin-4-yl)-6-methyl-2-oxopyridine-3-carboxamide] | ≤ 100 | ≤ 100 |
| COc1cc2nccc(Oc3ccc(NC(=O)c4cnc(C)c(-c5ccco5)c4O)cc3)c2nc1OC [Compound 255, N-[4-[(6,7-Dimethoxy-1,5-naphthyridin-4-yl)oxy]phenyl]-5-(furan-2-yl)-4-hydroxy-6-methylpyridine-3-carboxamide] | ≤ 100 | ≤ 100 |
| COc1cc2nccc(Oc3ccc(NC(=O)c4c(C)nc(C)c(-c5ccc(F)cn5)c4O)cc3)c2nc1OC [Compound 216, N-[4-[(6,7-Dimethoxy-1,5-naphthyridin-4-yl)oxy]phenyl]-5-(5-fluoropyridin-2-yl)-4-hydroxy-2,6-dimethylpyridine-3-carboxamide] | ≤ 100 | ≤ 100 |
